What is called pIC50 is −log10 of the IC50, conventionally taken in molar units. The low end stands for a high IC50, the high end for a low IC50.

pIC50: −log10 of the molar value.

The test system of the test is KRAS G12V dependent lung adenocarcinoma cell line, NCI-H441. As to the kind of experiment: Cellular pERK (Thr202/Tyr204) FRET/HTRF assay. The note with it: Homo sapiens, NCI-H441, pERK HTRF, NCI-H441 cells (KRAS G12V). The test is classed as cell-based. In outline:
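NCI-H441 cells (KRAS G12V) plated overnight at 37 °C, then exposed to compounds for 1 hr at 37 °C, 5% CO2; DMSO as negative control. Lysates read by Eu-cryptate/d2 sandwich FRET (665 nm) for ERK1/2 phosphorylated at Thr202/Tyr204; IC50 from curve fit.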
A general note: In TR-FRET formats the signal depends on donor and acceptor labels being close together.
In turn, `C#Cc1c(F)ccc2cc(O)cc(-c3ncc4c(N5CCCC[C@@H]6C[C@@H]65)nc(OC[C@@]56CCCN5C[C@H](F)C6)nc4c3F)c12` [Example 1, 4-(4-((1S,7R)-2-Azabicyclo[5.1.0]octan-2-yl)-8-fluoro-2-(((2R,7aS)-2-fluorotetrahydro-1H-pyrrolizin-7a(5H)-yl)methoxy)pyrido[4,3-d]pyrimidin-7-yl)-5-ethynyl-6-fluoronaphthalen-2-ol] showed a pIC50 of 5.00 to 6.30.
Consider `C#Cc1c(F)ccc2cc(O)cc(-c3ncc4c(N5CCCC[C@H]6C[C@H]65)nc(OC[C@@]56CCCN5C[C@H](F)C6)nc4c3F)c12` [Example 2, 4-(4-((1R,7S)-2-azabicyclo[5.1.0]octan-2-yl)-8-fluoro-2-(((2R,7aS)-2-fluorotetrahydro-1H-pyrrolizin-7a(5H)-yl)methoxy)pyrido[4,3-d]pyrimidin-7-yl)-5-ethynyl-6-fluoronaphthalen-2-ol], for which the pIC50 was greater than 7.30.
In the case of `C#Cc1c(F)ccc2cc(O)cc(-c3ncc4c(N5CCC6CC6CC5)nc(OC[C@@]56CCCN5C[C@H](F)C6)nc4c3F)c12` (stereo partly drawn) [Example 3, 4-(4-(4-Azabicyclo[5.1.0]octan-4-yl)-8-fluoro-2-(((2R,7aS)-2-fluorotetrahydro-1H-pyrrolizin-7a(5H)-yl)methoxy)pyrido[4,3-d]pyrimidin-7-yl)-5-ethynyl-6-fluoronaphthalen-2-ol], the pIC50 is greater than 7.30.
As to `C#Cc1c(F)ccc2cc(N)cc(-c3ncc4c(N5CCCC[C@@H]6C[C@@H]65)nc(OC[C@@]56CCCN5C[C@H](F)C6)nc4c3F)c12` [Example 4, 4-(4-((1S,7R)-2-azabicyclo[5.1.0]octan-2-yl)-8-fluoro-2-(((2R,7aS)-2-fluorotetrahydro-1H-pyrrolizin-7a(5H)-yl)methoxy)pyrido[4,3-d]pyrimidin-7-yl)-5-ethynyl-6-fluoronaphthalen-2-amine], the pIC50 is 5.00 to 6.30.
Compound `C#Cc1c(F)ccc2cc(O)cc(-c3ncc4c(N5CCCCC6C5C6(F)F)nc(OC[C@@]56CCCN5C[C@H](F)C6)nc4c3F)c12` (stereo partly drawn) [Example 6, 4-(4-(8,8-Difluoro-2-azabicyclo[5.1.0]octan-2-yl)-8-fluoro-2-(((2R,7aS)-2-fluorotetrahydro-1H-pyrrolizin-7a(5H)-yl)methoxy)pyrido[4,3-d]pyrimidin-7-yl)-5-ethynyl-6-fluoronaphthalen-2-ol] had a pIC50 greater than 7.30.
`[2H]C([2H])(Oc1nc(N2CCCC[C@@H]3C[C@@H]32)c2cnc(-c3cc(N)cc4cc(F)c(F)c(C#C)c34)c(F)c2n1)[C@@]12CCCN1C[C@H](F)C2` [Example 7, 4-(4-((1S,7R)-2-Azabicyclo[5.1.0]octan-2-yl)-8-fluoro-2-(((2R,7aS)-2-fluorotetrahydro-1H-pyrrolizin-7a(5H)-yl)methoxy-d2)pyrido[4,3-d]pyrimidin-7-yl)-5-ethynyl-6,7-difluoronaphthalen-2-amine] showed a pIC50 of 5.00 to 6.30.
The result for `[2H]C([2H])(Oc1nc(N2CCC3CC3CC2)c2cnc(-c3cc(N)cc4cc(F)c(F)c(C#C)c34)c(F)c2n1)[C@@]12CCCN1C[C@H](F)C2` (stereo partly drawn) [Example 9, 4-(4-(4-Azabicyclo[5.1.0]octan-4-yl)-8-fluoro-2-(((2R,7aS)-2-fluorotetrahydro-1H-pyrrolizin-7a(5H)-yl)methoxy-d2)pyrido[4,3-d]pyrimidin-7-yl)-5-ethynyl-6,7-difluoronaphthalen-2-amine] reads 6.30 to 7.30.
The compound `[2H]C([2H])(Oc1nc(N2CCCO[C@H]3C[C@H]32)c2cnc(-c3cc(O)cc4ccc(F)c(C#C)c34)c(F)c2n1)[C@@]12CCCN1C[C@H](F)C2` [Example 10, 4-(4-((1S,7R)-2-Oxa-6-azabicyclo[5.1.0]octan-6-yl)-8-fluoro-2-(((2R,7aS)-2-fluorotetrahydro-1H-pyrrolizin-7a(5H)-yl)methoxy-d2)pyrido[4,3-d]pyrimidin-7-yl)-5-ethynyl-6-fluoronaphthalen-2-ol] had a pIC50 greater than 7.30.
The result for `[2H]C([2H])(Oc1nc(N2CCCO[C@@H]3C[C@@H]32)c2cnc(-c3cc(O)cc4ccc(F)c(C#C)c34)c(F)c2n1)[C@@]12CCCN1C[C@H](F)C2` [Example 11, 4-(4-((1R,7S)-2-Oxa-6-azabicyclo[5.1.0]octan-6-yl)-8-fluoro-2-(((2R,7aS)-2-fluorotetrahydro-1H-pyrrolizin-7a(5H)-yl)methoxy-d2)pyrido[4,3-d]pyrimidin-7-yl)-5-ethynyl-6-fluoronaphthalen-2-ol] reads 6.30 to 7.30; that for `C#Cc1c(F)ccc2cc(O)cc(-c3ncc4c(N5CCCC6CC6C5)nc(OC[C@@]56CCCN5C[C@H](F)C6)nc4c3F)c12` (stereo partly drawn) [Example 12, 4-(4-(3-Azabicyclo[5.1.0]octan-3-yl)-8-fluoro-2-(((2R,7aS)-2-fluorotetrahydro-1H-pyrrolizin-7a(5H)-yl)methoxy)pyrido[4,3-d]pyrimidin-7-yl)-5-ethynyl-6-fluoronaphthalen-2-ol], greater than 7.30; that for `[2H]C([2H])(Oc1nc(N2CCCO[C@H]3C[C@H]32)c2cnc(-c3cc(N)cc4cc(F)c(F)c(C#C)c34)c(F)c2n1)[C@@]12CCCN1C[C@H](F)C2` [Example 17, 4-(4-((1S,7R)-2-Oxa-6-azabicyclo[5.1.0]octan-6-yl)-8-fluoro-2-(((2R,7aS)-2-fluorotetrahydro-1H-pyrrolizin-7a(5H)-yl)methoxy-d2)pyrido[4,3-d]pyrimidin-7-yl)-5-ethynyl-6,7-difluoronaphthalen-2-amine], greater than 7.30.
With `[2H]C([2H])(Oc1nc(N2CCCO[C@@H]3C[C@@H]32)c2cnc(-c3cc(N)cc4cc(F)c(F)c(C#C)c34)c(F)c2n1)[C@@]12CCCN1C[C@H](F)C2` [Example 18, 4-(4-((1R,7S)-2-Oxa-6-azabicyclo[5.1.0]octan-6-yl)-8-fluoro-2-(((2R,7aS)-2-fluorotetrahydro-1H-pyrrolizin-7a(5H)-yl)methoxy-d2)pyrido[4,3-d]pyrimidin-7-yl)-5-ethynyl-6,7-difluoronaphthalen-2-amine], the pIC50 was 5.00 to 6.30.
As to `[2H]C([2H])(Oc1nc(N2CCOC[C@@H]3[C@H]2C3(F)F)c2cnc(-c3cc(N)cc4cc(F)c(F)c(C#C)c34)c(F)c2n1)[C@@]12CCCN1C[C@H](F)C2` [Example 19, 4-(4-((1S,7S)-8,8-Difluoro-5-oxa-2-azabicyclo[5.1.0]octan-2-yl)-8-fluoro-2-(((2R,7aS)-2-fluorotetrahydro-1H-pyrrolizin-7a(5H)-yl)methoxy-d2)pyrido[4,3-d]pyrimidin-7-yl)-5-ethynyl-6,7-difluoronaphthalen-2-amine], the pIC50 is greater than 7.30.
With `[2H]C([2H])(Oc1nc(N2CCOC[C@H]3[C@@H]2C3(F)F)c2cnc(-c3cc(N)cc4cc(F)c(F)c(C#C)c34)c(F)c2n1)[C@@]12CCCN1C[C@H](F)C2` [Example 20, 4-(4-((1R,7R)-8,8-Difluoro-5-oxa-2-azabicyclo[5.1.0]octan-2-yl)-8-fluoro-2-(((2R,7aS)-2-fluorotetrahydro-1H-pyrrolizin-7a(5H)-yl)methoxy-d2)pyrido[4,3-d]pyrimidin-7-yl)-5-ethynyl-6,7-difluoronaphthalen-2-amine], the pIC50 is 5.00 to 6.30.
The compound `[2H]C([2H])(Oc1nc(N2CCCO[C@H]3[C@@H](F)[C@H]32)c2cnc(-c3cc(N)cc4cc(F)c(F)c(C#C)c34)c(F)c2n1)[C@@]12CCCN1C[C@H](F)C2` [Example 21, 5-Ethynyl-6,7-difluoro-4-(8-fluoro-4-((1R,7S,8S)-8-fluoro-2-oxa-6-azabicyclo[5.1.0]octan-6-yl)-2-(((2R,7aS)-2-fluorotetrahydro-1H-pyrrolizin-7a(5H)-yl)methoxy-d2)pyrido[4,3-d]pyrimidin-7-yl)naphthalen-2-amine] gave a pIC50 of 5.00 to 6.30.
`[2H]C([2H])(Oc1nc(N2CCCO[C@@H]3[C@H](F)[C@@H]32)c2cnc(-c3cc(N)cc4cc(F)c(F)c(C#C)c34)c(F)c2n1)[C@@]12CCCN1C[C@H](F)C2` [Example 22, 5-Ethynyl-6,7-difluoro-4-(8-fluoro-4-((1S,7R,8R)-8-fluoro-2-oxa-6-azabicyclo[5.1.0]octan-6-yl)-2-(((2R,7aS)-2-fluorotetrahydro-1H-pyrrolizin-7a(5H)-yl)methoxy-d2)pyrido[4,3-d]pyrimidin-7-yl)naphthalen-2-amine] showed a pIC50 of 6.30 to 7.30.
The result for `[2H]C([2H])(Oc1nc(N2CCCO[C@@H]3[C@@H](F)[C@@H]32)c2cnc(-c3cc(N)cc4cc(F)c(F)c(C#C)c34)c(F)c2n1)[C@@]12CCCN1C[C@H](F)C2` [Example 23, 5-Ethynyl-6,7-difluoro-4-(8-fluoro-4-((1S,7R,8S)-8-fluoro-2-oxa-6-azabicyclo[5.1.0]octan-6-yl)-2-(((2R,7aS)-2-fluorotetrahydro-1H-pyrrolizin-7a(5H)-yl)methoxy-d2)pyrido[4,3-d]pyrimidin-7-yl)naphthalen-2-amine] reads 5.00 to 6.30; that for `[2H]C1([2H])CCO[C@H]2C[C@H]2N1c1nc(OC([2H])([2H])[C@@]23CCCN2C[C@H](F)C3)nc2c(F)c(-c3cc(N)cc4cc(F)c(F)c(C#C)c34)ncc12` [Example 25, 4-(4-((1S,7R)-2-Oxa-6-azabicyclo[5.1.0]octan-6-yl-5,5-d2)-8-fluoro-2-(((2R,7aS)-2-fluorotetrahydro-1H-pyrrolizin-7a(5H)-yl)methoxy-d2)pyrido[4,3-d]pyrimidin-7-yl)-5-ethynyl-6,7-difluoronaphthalen-2-amine], greater than 7.30.
Consider `[2H]C1([2H])CCO[C@@H]2C[C@@H]2N1c1nc(OC([2H])([2H])[C@@]23CCCN2C[C@H](F)C3)nc2c(F)c(-c3cc(N)cc4cc(F)c(F)c(C#C)c34)ncc12` [Example 26, 4-(4-((1R,7S)-2-Oxa-6-azabicyclo[5.1.0]octan-6-yl-5,5-d2)-8-fluoro-2-(((2R,7aS)-2-fluorotetrahydro-1H-pyrrolizin-7a(5H)-yl)methoxy-d2)pyrido[4,3-d]pyrimidin-7-yl)-5-ethynyl-6,7-difluoronaphthalen-2-amine], for which the pIC50 was 6.30 to 7.30.

(Values after patent publication US20250282799A1, “SUBSTITUTED PYRIDO[4,3-d]PYRIMIDINES AS KRAS MODULATORS” (Alterome Therapeutics, Inc., priority 2023, published 2025).)
